In patent US7160909B2, “Cyclopenta[b]indole derivatives as sPLA2 inhibitors” (Eli Lilly and Company, priority 2001, dated 2007):

Target: T1, recombinant human secreted phospholipase A2 (Homo sapiens, UniProt P14555)
T1 sequence (P14555 21-144): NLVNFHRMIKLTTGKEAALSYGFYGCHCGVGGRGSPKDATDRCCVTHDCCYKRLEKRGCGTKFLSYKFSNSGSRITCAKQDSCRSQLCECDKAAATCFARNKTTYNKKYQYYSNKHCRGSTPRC
Assay: chromogenic assay of recombinant human secreted phospholipase A2
Assay type: biochemical
Conditions: diheptanoyl thio-PC substrate, pH 7.5, 40° C. for 30 minutes, absorbance at 405 nanometers, triplicate
Text: The following chromogenic assay procedure was used to identify and evaluate inhibitors of recombinant human secreted phospholipase A2. The assay described herein has been adapted for high volume screening using 96 well microtiter plates. A general description of this assay method is found in the article, “Analysis of Human Synovial Fluid Phospholipase A2 on Short Chain Phosphatidylcholine-Mixed Micelles: Development of a Spectrophotometric Assay Suitable for a Microtiterplate Reader”, by Laure J. Reynolds, Lori L. Hughes, and Edward A Dennis, Analytical Biochemistry, 204, pp. 190–197, 1992 (the disclosure of which is incorporated herein by reference): […]
A measured volume of racemic dipheptanoyl thio PC supplied in chloroform at a concentration of 100 mg/ml is taken to dryness and redissolved in 10 millimolar TRITON X-100™ nonionic detergent aqueous solution. […]
• 1. […] Read absorbance of wells at 405 nanometers with an automatic plate reader.
Tests were done in triplicate. […] Compounds initially found to be active were re-assayed to confirm their activity and, if sufficiently active, IC50 values were determined. […] In all cases, % inhibition measured at 405 nanometers generated by enzyme reactions containing inhibitors relative to the uninhibited control reactions was determined. […]

IC50: 0.046 µM
Compound: NC(=O)C1CCc2c1c1c(OCC(=O)O)cccc1n2Cc1ccccc1 (stereo not shown) [Example 1, (4-Benzyl-1-carbamoyl-1,2,3,4-tetrahydro-cyclopenta[b]indol-8-yloxy)-acetic acid]
